Source: patent US7741486B1, “Water-soluble titanium alkoxide material” (Sandia Corporation, priority 2008, dated 2010)

Format: physicochemical
From the text: The bidentate nature of the OC6H6N (referred to herein as OPy) group, the steric bulk of the OC6H2(CH2N(CH3)2)3-2,4,6 (referred to herein as TAP) ligand, and the amino functionality of the OC6H2(CH2N(CH3)2)3-2,4,6 ligand combine to effectively limit conventional hydrolysis of the alkoxide while maintaining solubility in aqueous media. Therefore, unlike many other similar compounds, the compound of the present invention is both water soluble and stable in an aqueous solution.
The inhibition of hydrolysis at ligand sites even when the molecule is dispersed in water is attributed to steric constraints imposed by the bidentate pyridine carbinoxide (OPy) and monodentate tri-amino-phenoxide (TAP) groups. It is believed that the amino groups present on the TAP ligand further facilitate water solubilization through H-bonding with the water. The inert character of the molecule to conventional hydrolysis chemistry enables an evaluation of photoexcitation as a means to influence the evolution of intermolecular bond formation.

With `CN(C)Cc1cc(CN(C)C)c([O][Ti]([O]Cc2ccccn2)([O]Cc2ccccn2)[O]c2c(CN(C)C)cc(CN(C)C)cc2CN(C)C)c(CN(C)C)c1` [(OC6H6N)2Ti(OC6H2(CH2N(CH3)2)3-2,4,6)2] the “stability in aqueous solution (resistance to conventional hydrolysis)” value was “water-stable” and the water solubility was “water-soluble”.
